Assay results reported in the SangsterLogP compilation.

Assay: method code SF-HPLC, from DOI: 10.1016/j.ejps.2004.08.007, PMID: 15567286
Settings: pH 7.4

| logD | SMILES |
| --- | --- |
| 1.3 | O=C(Nc1cc[nH]c(=O)n1)OCc1ccccc1 |
| 1.5 | CC(C)(C)COC(=O)Nc1cc[nH]c(=O)n1 |
| 2.3 | CCCCCCOC(=O)Nc1cc[nH]c(=O)n1 |
| 2.9 | O=C(Nc1cc[nH]c(=O)n1)OC12CC3CC(CC(C3)C1)C2 |
| -0.55 | COC(=O)Nc1cc[nH]c(=O)n1 |

Further lines, the compound ahead of its results:

| SMILES | logD |
| --- | --- |
| CC(C)COC(=O)Nc1cc[nH]c(=O)n1 | 1.1 |
| CCCCCCCCOC(=O)Nc1cc[nH]c(=O)n1 | 3.3 |
| CCOC(=O)Nc1cc[nH]c(=O)n1 | -0.09 |
| CCCCOC(=O)Nc1cc[nH]c(=O)n1 | 1.1 |

Assay: method code SF, from DOI: 10.1016/j.ejps.2004.08.007, PMID: 15567286
Settings: not given

| logP | SMILES |
| --- | --- |
| 1.52 | O=Cc1ccc(C(=O)O)cc1 |
